Experimental data taken from BindingDB's records for doi:10.1021/jm2006222.

Molecular target: 3-phosphoinositide-dependent protein kinase 1 (Homo sapiens) (UniProt O15530)
Assay: Inhibition of recombinant PDK1

- IC50: > 10 µM
SMILES: CCN1CCN(c2ccc(Nc3cc(N(C)C(=O)Nc4c(Cl)c(OC)cc(OC)c4Cl)ncn3)cc2)CC1
